In US8124357B2 (priority 2005, dated 2012):

System: Neuro-2A cells
Assay type: cell-based

CC1=C(/C=C/C(C)=C/C=C/C(C)=C/C(=O)O)C(C)(C)CCC1 [all trans retinoic acid, All Trans-Retinoic acid]
BoNT/A SNAP25197-cleavage product (uptake of BoNT/A) after differentiation reagent: increase
